From patent US20220205982A1 (CHILDREN'S HOSPITAL MEDICAL CENTER, priority 2019, published 2022)
Like-named read-outs stand apart in the source and are kept apart here.

What was measured:
[1] = Clinical outcome and toxicity after melphalan full dose in RIC allogeneic HCT (engraftment, chimerism, mucositis, VOD, GVHD); type: in vivo, human
Procedure: Patients undergoing allogeneic HCT for non-malignant disorders with a uniform RIC regimen that included alemtuzumab, fludarabine and melphalan were enrolled in this study. Full standard dose of melphalan was set as follows: • 140 mg/m^2 in patients having a body weight >10 kg, • 4.7 mg/kg in patients having a body weight <10 kg, and • 70 mg/m^2 in one patient with a radio sensitivity disorder.
Blood samples were obtained for PK measurement after the administration of test dose and the full standard dose of melphalan. A total of 10 blood samples were obtained around each dose of melphalan: at baseline (5-10 min prior to start of the melphalan infusion of) and then approximately at 5 min, 15 min, 30 min, 45 min, 60 min, 2 hour, 2.5, 4, and 6 hours after the end of the melphalan infusion. Samples were collected on ice and transported to the institution's mass spectrometry laboratory for instant analysis by PS-MS/MS and conventional LC-MS/MS. Patient data collected for analysis included baseline organ function, presence of oral and gastrointestinal mucositis, renal and liver dysfunction including VOD, initial donor chimerism, graft rejection, and acute and chronic GVHD (aGVHD and cGVHD). The Common Terminology Criteria for Adverse Events (CTCAE) version 4.0 was used to evaluate adverse events. Acute and chronic GVHD were assessed by standardized published criteria. See, e.g., Glucksberg H, et al. Transplantation. 1974; 18:295-304 and Filipovich A H, et al. Biol Blood Marrow Transplant. 2005; 11:945-956. Interim analyses were completed after enrollment of 5 patients and 10 patients respectively to validate data following 25% and 50% of intended total patient enrollment. The AUC range that led to full donor chimerism without excess toxicity in majority of patients was selected to be the desired target AUC for full dose adjustment. In patients with baseline impaired organ function, personalized full dose melphalan was adjusted to limit toxicity if test dose PK predicted standard full dose AUC was higher than the desired target AUC range.

[2] = Real-time PK study of melphalan in whole blood by PS-MS/MS in patients undergoing HSCT; type: in vivo; conditions: human, intravenous
Procedure: Patients undergoing HSCT were administered by intravenous infusion a low dose of melphalan (referred to as the ‘test’ dose) to first determine each patient's individualized pharmacokinetics of the drug. After that the personalized optimal full dose was calculated from these measurements and then administered. The test dose equated to 10% of the expected standard full dose for each patient. Blood samples for pharmacokinetic measurement were collected after the test dose and again after the full standard dose of melphalan. Samples were collected at baseline, 5-10 mins before drug infusion, and then 5 min, 15 min, 30 min, 45 min, 1 h, 2h, 2.5h, 4h, and 6h post-infusion. […] Plasma samples from the same blood draw were also obtained after centrifugation at 3000 rpm for 15 min and stored at −80° C. degree until analyzed by both PS-MS/MS and LC-ESI-MS/MS. […]
PS-MS/MS was performed on an automated PS ion source (Prosolia, Inc. Indianapolis, Ind.) interfaced with a TSQ Quantum Ultra mass spectrometer (Thermo Scientific, San Jose, Calif.). […] A total of 50 scans in positive ion mode were acquired over 1 min for each m/z transition monitored. The transitions m/z 305.3 →246.2 for melphalan and the corresponding transition m/z 313.3→254.2 for the I.S. were used for quantification, while the transition m/z 305.3→194.2 served as a qualifier for melphalan confirmation. […]

plasma proteins = conditions: cited from earlier work
[3] = ambient temperature; hydrolyzed to monohydroxymelphalan, then dihydroxymelphalan; cited from earlier work
[4] = five patients, adjusted full dose
[5] = sixth patient, initial HCT, full dose 0.44 mg/kg
[6] = sixth patient, second HCT, full dose 1.2 mg/kg

N[C@@H](Cc1ccc(N(CCCl)CCCl)cc1)C(=O)O [melphalan, 4-[Bis(2-chloroethyl)amino]-L-phenylalanine]
donor chimerism at engraftment [1, 4]: ≥ 99%
patients who developed VOD [1, 4]: None
patients with grade 3 mucositis [1, 4]: all 5
patients who developed GVHD ([1]; four patients): 15%
patients who developed grade 1 acute GVHD of skin ([1]; human, in vivo): Two
patients who developed limited chronic GVHD ([1]; human, in vivo): two
VOD of the liver or other excessive toxicity [1, 5]: did not develop VOD of the liver or other excessive toxicity
graft outcome [1, 5]: developed secondary graft failure
whole blood donor chimerism [1, 5]: 79%
VOD of the liver or other excessive toxicity [1, 6]: without developing VOD of the liver or other excessive toxicity
donor chimerism [1, 6]: 100%
patients who developed VOD of the liver ([1]; standard dose melphalan): Two
patients who developed grade 1 mucositis ([1]; standard dose melphalan): one
patients who developed grade 2 mucositis ([1]; standard dose melphalan): 5 patients
patients who developed grade 3 mucositis ([1]; standard dose melphalan): Ten
patients who developed grade 4 mucositis ([1]; standard dose melphalan): one
patients who developed primary graft failure ([1]; standard dose melphalan): None
donor chimerism at engraftment ([1]; standard dose melphalan, all patients): > 95%
AUC ([2]; 10 % of the expected standard full dose, lower test doses, PS-MS/MS, n=4, read-out: calculated mean AUC): 0.41 ± 0.23 µg·h/mL
AUC ([2]; full dose, PS-MS/MS method, n=5, read-out: calculated mean AUC): 4.9 ± 1.5 µg·h/mL
interactions with immunoglobulins (plasma proteins): negligible
melphalan (covalently) irreversibly bound to plasma proteins (plasma proteins; plasma): Approximately 30%
stability in blood and plasma [3]: unstable
